These results are taken from US20220177418A1, “INHIBITORS OF THE N-TERMINAL DOMAIN OF THE ANDROGEN RECEPTOR” (The Regents of the University of California, priority 2019, published 2022).

What all share (assay type): cell-based
Experiment [1] has as its system ER or PR. Description: Western blot protein degradation, T47D breast cancer cells, ER and PR. The settings on record: breast cancer cell line that co-expresses AR. As to the method: (§1) LNCaP-AR cells were treated with JN103 and cycloheximide (to inhibit translation) at the indicated doses and times (FIG. 11A). Cell protein was subjected to Western blotting for the indicated proteins. The same tests were performed on LNCaP-95 cells, HEK-293 cells engineered to ectopically express ARΔ567, PC3 cells, and T47D breast cancer cells.

Experiment [2] has as its system LNCaP-AR (full-length AR). Briefly: Colony formation assay, LNCaP-AR. The settings on record: 2-10 μm, two weeks. The protocol:
(§2) DU145, PC3LNCaP-AR (full-length AR), 22Rv1 (full-length and splice variant AR), and VCaP cells (400 cells/well of 6-well plate) were treated with indicated 0 (pure DMSO), 2, 4, 6, 8, 10 μm of JN103 for two weeks. Colonies were visualized with methylene blue staining.

Experiment [3] deals with T1, AR (Homo sapiens, UniProt P10275).
T1 construct: a breast cancer cell line that co-expresses AR, ER, and PR; endogenous in cells; host or cells: T47D breast cancer cells
Briefly: Western blot protein degradation, T47D breast cancer cells, AR. The settings on record: breast cancer cell line that co-expresses AR, ER, and PR (T47D). As to the method: as §1
On the technique in general: A western blot detects proteins with antibodies after separation by electrophoresis.

Experiment [4] deals with actin or the GR. Description: Western blot protein degradation, other proteins. The settings on record: FIGS. 11(A)-11(D). As to the method: as §1
Experiment [5] deals with T2, full-length AR overexpressed in LNCaP-AR cells (Homo sapiens, UniProt P10275).
T2 construct: the full-length AR overexpressed in LNCaP-AR cells; expressed in transfected cells; host or cells: LNCaP-AR cells
Description: Western blot protein degradation with cycloheximide, LNCaP-AR cells. The protocol: as §1

Experiment [6] relates to 22Rv1 (full-length and splice variant AR). Briefly: Colony formation assay, 22Rv1. The settings on record: 22Rv1, 2-10 μm, two weeks. The protocol: as §2
The subject of experiment [7] is VCaP (full-length and splice variant AR). Description: Colony formation assay, VCaP. The settings on record: 2-10 μm, two weeks. The protocol: as §2
For experiment [8], the system named is full-length AR and AR-V7. Description: Western blot protein degradation with cycloheximide, LNCaP-95 cells. The settings on record: endogenously expressed. The protocol:
as §1

The test system of experiment [9] is AR-null DU145 cells. Briefly: Colony formation assay, DU145. The settings on record: DU145, 2-10 μm, two weeks. The protocol:
as §2

Experiment [10] relates to PC3 cell. Briefly: Colony formation assay, PC3. The settings on record: PC3, at high concentrations, two weeks. As to the method: as §2
The test system of experiment [11] is breast cancer cell line (T47D). Briefly: MTT assay on non-prostate cancer cell lines. The settings on record: 2-8 μm, 5 days. The protocol:
The growth-inhibitory effects of JN103 were also assessed in MTT assays on 20 non-prostate cancer cell lines. (FIG. 13). Cells were exposed to 0 (pure DMSO), 2, 4, 6, and 8 μm of JN103 for 5 days and subjected to MTT assay to determine cell viability. Results are means of quadruplicates.

For experiment [12], the system named is AR transcriptional program. Description: Whole transcriptomic RNA-sequencing, gene set expression analysis. The settings on record: LNCaP-AR and 22Rv1 cells, 10 μM, 8 hours. As to the method:
Negative enrichment scores (NES are shown for the AR transcriptional program.
Whole transcriptomic RNA-sequencing was performed for two castration resistant cell lines (LNCaP-AR and 22Rv1), which were exposed to JN103 (10 μM) for 8 hours. The experimental results as determined by gene set expression analysis (FIG. 10) show negative enrichment scores (NES) for the AR transcriptional program.

Experiment [13] addresses T3, ARΔ567 (Homo sapiens, UniProt P10275).
T3 construct: expressed in transfected cells; host or cells: HEK-293 cells
Briefly: Western blot protein degradation with cycloheximide, HEK-293 cells. The settings on record: ectopically expressed. As to the method: as §1

Experiment [14] has as its target AR transactivation domain (Homo sapiens, UniProt P10275). Briefly: AR-TAD-luciferase reporter assay. The settings on record: inhibition grade. The protocol:
(§3) The biochemical assays include reporter assays to determine the activity and specificity of these JN compounds to inhibit the transcriptional activity of the androgen receptor (AR). […] The reporter assays were performed in replicates and across a wide range of concentrations (generally […]).
(§4) The reporter systems utilized include: • MMTV-luciferase: AR-dependent • ARE-luciferase: AR-dependent • GRE-luciferase: glucocorticoid receptor (GR)-dependent • CRE-luciferase: CREB-dependent • AP1-luciferase: AP1 (jun and fos family)-dependent: • AR-TAD-luciferase: dependent on AR transactivation domain • CREB-TAD-luciferase: dependent on CREB transactivation domain • JUN-TAD-luciferase: dependent on c-Jun transactivation domain

The subject of experiment [15] is AR-expressing (AR-positive) prostate cancer cell lines. Description: MTT cell viability assay, AR-positive cells. The conditions noted are these: growth inhibition grade, 6 days. As to the method: (§5) FIGS. 3A-Q. Growth inhibitory effects of selected compounds. The indicated cells were exposed to the indicated compounds for 6 days; cell viability was measured by MTT assay, and specific reporters were assayed using literature conditions. Results were normalized to that of vehicle control. Experiments were performed in quadruplicate; results are means±s.d.
(§6) JN053 and JN138-JN156 were synthesized and tested in biochemical and cell biologic assays that have been described elsewhere. The JN compounds were first studied in cell viability assays (MTT assay) to determine the efficacy and specificity of the JN compounds for inhibition of prostate cancer cell lines.
(§7) The growth inhibitory effect of the JN compounds was assessed through the MTT assay, which assesses the total number of viable cells in vitro. These experiments were performed in AR-expressing (AR-positive) prostate cancer cell lines to assess on target effects and AR-null (AR-negative) prostate cancer cell lines to assess off target effects (i.e. specificity).
AR-expressing (AR-pos): • LNCaP: full length AR • LNCaP AR: overexpression of full length AR • 22Rv1: full length AR and ARV7 • VCaP: full length AR and ARV7 • CWR22: full length AR and ARV7

Experiment [16] relates to AR-null (AR-negative) prostate cancer cell lines. Briefly: MTT cell viability assay, AR-negative cells. The conditions noted are these: growth inhibition grade, 6 days. As to the method:
as §5, §6, §7
(Tetrazolium assays rely on reduction of a dye to a coloured formazan, in cell work by metabolically active cells.)

The subject of experiment [17] is CREB transactivation domain. Description: CREB-TAD-luciferase reporter assay. The settings on record: inhibition grade. As to the method:
(§8) The biochemical assays include reporter assays to determine the activity and specificity of these JN compounds to inhibit the transcriptional activity of the androgen receptor (AR). The reporter assays were conducted in various cell lines that either endogenously or exogenously express the full-length AR and ARV7, a constitutively active splice variant that is resistant to all clinically available AR targeting compounds. The reporter assays were performed in replicates and across a wide range of concentrations (generally […]).
as §4
A general note: A reporter such as luciferase makes a cellular process visible.

The target of experiment [18] is T4, androgen receptor (AR) (Homo sapiens, UniProt P10275).
T4 construct: either endogenously or exogenously express the full-length AR and ARV7
Briefly: MMTV-luciferase reporter assay (AR-dependent). The settings on record: inhibition grade. As to the method:
as §3, §4

The target in experiment [19] is glucocorticoid receptor (GR) (Homo sapiens, UniProt P04150). Description: GRE-luciferase reporter assay. The conditions noted are these: GR-dependent, inhibition grade. The protocol: as §8, §4
Experiment [20] concerns c-Jun transactivation domain. Briefly: JUN-TAD-luciferase reporter assay. The conditions noted are these: inhibition grade. The protocol: as §8, §4
Experiment [21] concerns AP1 (jun and fos family). Briefly: AP1-luciferase reporter assay. The settings on record: inhibition grade. The protocol:
as §8, §4

Sequence of glucocorticoid receptor (GR) (P04150 whole entry, species assumed, the tested form may be a part): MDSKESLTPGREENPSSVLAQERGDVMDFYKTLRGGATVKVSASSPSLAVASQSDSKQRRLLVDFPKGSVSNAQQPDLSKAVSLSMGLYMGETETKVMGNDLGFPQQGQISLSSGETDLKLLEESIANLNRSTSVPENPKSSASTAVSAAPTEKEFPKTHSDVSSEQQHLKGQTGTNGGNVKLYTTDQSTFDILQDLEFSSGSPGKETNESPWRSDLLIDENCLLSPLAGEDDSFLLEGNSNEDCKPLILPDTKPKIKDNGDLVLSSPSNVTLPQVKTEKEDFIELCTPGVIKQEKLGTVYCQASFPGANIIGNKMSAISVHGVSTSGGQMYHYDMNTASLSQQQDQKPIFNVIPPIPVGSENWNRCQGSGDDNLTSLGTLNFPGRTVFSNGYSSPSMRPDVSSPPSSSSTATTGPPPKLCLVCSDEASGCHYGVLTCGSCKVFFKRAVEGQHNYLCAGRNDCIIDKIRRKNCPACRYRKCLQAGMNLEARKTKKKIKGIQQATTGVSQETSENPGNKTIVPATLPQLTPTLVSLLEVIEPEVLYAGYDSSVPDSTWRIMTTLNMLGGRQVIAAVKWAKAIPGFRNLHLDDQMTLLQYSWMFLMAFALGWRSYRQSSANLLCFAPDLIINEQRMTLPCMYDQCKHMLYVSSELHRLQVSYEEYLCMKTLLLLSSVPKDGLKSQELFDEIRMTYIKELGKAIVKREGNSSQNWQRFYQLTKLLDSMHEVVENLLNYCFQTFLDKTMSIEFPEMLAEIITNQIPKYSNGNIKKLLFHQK
Sequence of AR transactivation domain (P10275 1-559 limits assumed): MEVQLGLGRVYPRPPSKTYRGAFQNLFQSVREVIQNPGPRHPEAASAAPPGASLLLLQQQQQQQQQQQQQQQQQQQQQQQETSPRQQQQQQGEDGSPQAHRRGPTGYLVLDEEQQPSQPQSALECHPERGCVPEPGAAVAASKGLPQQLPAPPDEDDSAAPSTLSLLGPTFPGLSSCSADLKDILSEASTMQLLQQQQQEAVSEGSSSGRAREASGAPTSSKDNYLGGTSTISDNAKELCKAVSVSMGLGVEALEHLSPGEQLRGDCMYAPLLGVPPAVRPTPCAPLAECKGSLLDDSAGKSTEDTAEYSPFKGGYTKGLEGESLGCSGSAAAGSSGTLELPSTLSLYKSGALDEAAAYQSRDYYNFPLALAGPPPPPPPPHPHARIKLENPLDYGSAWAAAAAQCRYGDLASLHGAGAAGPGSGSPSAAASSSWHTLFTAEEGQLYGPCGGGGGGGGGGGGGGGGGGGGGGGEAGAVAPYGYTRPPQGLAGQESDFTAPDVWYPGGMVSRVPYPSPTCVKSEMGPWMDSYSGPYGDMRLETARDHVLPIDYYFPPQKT
T2 sequence (P10275 whole entry): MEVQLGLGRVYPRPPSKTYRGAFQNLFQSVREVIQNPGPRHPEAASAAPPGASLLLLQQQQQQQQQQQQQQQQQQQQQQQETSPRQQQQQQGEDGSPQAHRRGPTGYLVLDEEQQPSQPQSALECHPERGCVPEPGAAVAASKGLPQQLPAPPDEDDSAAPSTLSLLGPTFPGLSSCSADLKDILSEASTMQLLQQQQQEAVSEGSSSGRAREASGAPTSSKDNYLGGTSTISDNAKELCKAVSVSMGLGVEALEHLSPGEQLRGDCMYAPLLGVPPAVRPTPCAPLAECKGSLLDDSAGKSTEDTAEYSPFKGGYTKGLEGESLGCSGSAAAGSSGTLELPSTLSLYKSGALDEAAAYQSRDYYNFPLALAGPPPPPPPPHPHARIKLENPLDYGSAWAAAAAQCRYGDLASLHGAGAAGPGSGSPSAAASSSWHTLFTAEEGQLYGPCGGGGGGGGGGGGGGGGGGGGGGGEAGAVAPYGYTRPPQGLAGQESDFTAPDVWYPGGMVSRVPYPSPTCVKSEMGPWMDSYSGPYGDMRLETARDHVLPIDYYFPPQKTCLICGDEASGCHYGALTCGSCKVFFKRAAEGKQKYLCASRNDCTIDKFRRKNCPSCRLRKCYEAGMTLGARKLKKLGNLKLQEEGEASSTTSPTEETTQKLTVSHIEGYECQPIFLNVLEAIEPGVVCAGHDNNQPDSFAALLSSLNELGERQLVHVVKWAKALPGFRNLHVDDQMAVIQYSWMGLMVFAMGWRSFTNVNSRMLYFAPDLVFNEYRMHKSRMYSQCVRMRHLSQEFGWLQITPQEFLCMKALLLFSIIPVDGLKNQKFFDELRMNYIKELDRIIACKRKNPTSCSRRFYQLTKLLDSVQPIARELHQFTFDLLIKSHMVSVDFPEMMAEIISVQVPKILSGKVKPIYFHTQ
T4 sequence (P10275 whole entry): as above
T3 sequence (P10275 with tags, fused parts or gaps limits assumed): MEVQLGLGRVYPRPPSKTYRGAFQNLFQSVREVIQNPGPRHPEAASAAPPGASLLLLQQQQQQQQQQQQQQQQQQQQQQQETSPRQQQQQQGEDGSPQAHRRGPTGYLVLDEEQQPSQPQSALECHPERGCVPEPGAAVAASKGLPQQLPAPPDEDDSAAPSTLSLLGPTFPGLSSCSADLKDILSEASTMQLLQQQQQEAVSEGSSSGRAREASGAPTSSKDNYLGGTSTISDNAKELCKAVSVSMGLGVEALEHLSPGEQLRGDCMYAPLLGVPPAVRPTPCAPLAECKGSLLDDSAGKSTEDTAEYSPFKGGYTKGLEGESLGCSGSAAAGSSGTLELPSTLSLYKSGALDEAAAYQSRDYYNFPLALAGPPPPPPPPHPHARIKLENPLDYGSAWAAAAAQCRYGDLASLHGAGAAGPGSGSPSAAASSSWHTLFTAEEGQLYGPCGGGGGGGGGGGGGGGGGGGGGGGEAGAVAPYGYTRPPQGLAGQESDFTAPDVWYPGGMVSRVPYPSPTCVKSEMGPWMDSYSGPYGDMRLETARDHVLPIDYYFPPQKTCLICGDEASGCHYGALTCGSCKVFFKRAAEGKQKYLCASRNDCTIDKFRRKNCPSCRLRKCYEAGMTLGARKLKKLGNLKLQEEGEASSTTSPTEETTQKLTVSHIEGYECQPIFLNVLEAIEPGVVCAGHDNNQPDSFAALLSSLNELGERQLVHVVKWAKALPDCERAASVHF

Turning to `C=C(C)C(=O)NC(=O)/C(=C/c1ccc(Cl)cc1)c1ccc(F)cc1` [JN103, (E)-3-(4-Chlorophenyl)-2-(4-fluorophenyl)-N-methacryloylacrylamide], in [1], the “degradation of the ER or PR” value is “not the ER or PR”. In addition, the colony formation result in [2] was “inhibits the growth”; in [6], “inhibits the growth”; in experiment [7], “inhibits the growth”; in experiment [9], “limited impact on colony formation”; in experiment [10] it was “only mild effects”. The “degradation of the AR” value in [3] is “induces degradation of the AR”. Also, in experiment [4], the “degradation of other proteins, including actin or the GR” value is “does not affect the degradation”. In addition, the “degradation of full-length AR” value in experiment [5] is “potently induces time- and dose-dependent degradation”. The “degradation of full-length AR and AR-V7” value in [8] was “potently induces time- and dose-dependent degradation”. Further, the “growth inhibition (MTT cell viability)” value in [11] is “significant growth inhibition”. Further, the “AR gene signature (gene set expression analysis)” value in [12] is given as “marked decrease in the AR gene signature”. Further, the “degradation of ARΔ567” value in [13] is “potently induces time- and dose-dependent degradation”.
`C=C(C)C(=O)NC(=O)/C(=C/c1ccc(Cl)cc1)c1ccc(C(F)(F)F)cc1` [JN152]: the AR-TAD entry in experiment [14] is reported as “HIGH”. Further, in experiment [15], the “MTT AR-Pos” value is given as “HIGH”. Further, the “MTT AR Neg” value in experiment [16] is “LOW”. Besides, the CREB-TAD entry in [17] was “HIGH”. The MMTV result in experiment [18] is given as “HIGH”. In experiment [19], the GRE result is given as “HIGH”.
`CNC(=O)c1ccc(N2C(=S)N(c3ccc(C#N)c(C(F)(F)F)c3)C(=O)C2(C)C)cc1F` [MDV3100, reference compound]: in experiment [15], the “MTT AR-Pos” value is given as “HIGH”. In experiment [20], the JUN-TAD result is given as “LOW”. In experiment [16], the “MTT AR Neg” value was “LOW”. Besides, the CREB-TAD result in experiment [17] is given as “LOW”. The GRE entry in [19] is reported as “LOW”. Also, the AP1 result in experiment [21] is “HIGH”.
